The test system of assay [1] is RAW264.7. Briefly: Antiinflammatory activity in LPS-induced mouse RAW264.7 cells assessed as reduction in IL-1beta production pretreated for 30 mins followed by LPS induction measured after 2 hrs by ELISA method. The class given is functional, cell-based.
For assay [2], the system named is J774.A1. The assay is described as follows: Antiinflammatory activity in LPS-induced mouse J774.A1 cells assessed as reduction in IL-1beta production pretreated for 30 mins followed by LPS induction measured after 2 hrs by ELISA method. It is filed as functional, cell-based.
Assay [3] deals with Rattus norvegicus. The assay is described as follows: Antiinflammatory activity in LPS-induced Sprague-Dawley rat assessed as reduction in TNFalpha production in plasma at 20 mg/kg, ip pretreated for 30 mins followed by LPS induction measured after 4 hrs by ELISA method relative to control. Details: scale not given: the % may be the effect or the level left. The following applies: time 4.5 hrs. The class given is functional.

Assay [4] deals with Rattus norvegicus. Briefly: Antiinflammatory activity in LPS-induced Sprague-Dawley rat assessed as reduction in IL-1beta production in plasma at 20 mg/kg, ip pretreated for 30 mins followed by LPS induction measured after 4 hrs by ELISA method relative to control. It is filed as functional. Further details: scale not given: the % may be the effect or the level left. The following applies: time 4.5 hrs.

Assay [5] deals with RAW264.7. The assay is described as follows: Antiinflammatory activity in LPS-induced mouse RAW264.7 cells assessed as reduction in TNFalpha production pretreated for 30 mins followed by LPS induction measured after 2 hrs by ELISA method. It is filed as functional, cell-based.
Assay [6] concerns J774.A1. Briefly: Antiinflammatory activity in LPS-induced mouse J774.A1 cells assessed as reduction in TNFalpha production pretreated for 30 mins followed by LPS induction measured after 2 hrs by ELISA method. It is filed as functional, cell-based.
The test system of assay [7] is BV-2. The assay is described as follows: Antiinflammatory activity in mouse BV-2 cells assessed as reduction in LPS-induced NO production incubated for 24 hrs by microplate reader analysis. It is filed as functional, cell-based. The following applies: BV-2, 24 h.
In assay [8] the test system is BV-2. Briefly: Anti-inflammatory activity in mouse BV-2 cells assessed as reduction in LPS-induced NO production pre-treated with compounds for 2 hrs followed by LPS-stimulation measured for 22 hrs by Griess reagent based analysis. It is filed as functional, cell-based.
Assay [9] can be described thus: Anti-inflammatory activity in LPS-stimulated human PBMC cells assessed as inhibition of TNFalpha at 100 ug/ml relative to control. The class given is functional. Details: scale not given: the % may be the effect or the level left. The following applies: dose 100 µg/ml.
Assay [10] has as its system RAW264.7. Briefly: Anti-inflammatory activity against LPS-stimulated mouse RAW264.7 cells assessed as inhibition of IL-6 expression at 10 uM by qRT-PCR analysis relative to control. The class given is functional. Further details: scale not given: the % may be the effect or the level left.
Assay [11] deals with BV-2. Briefly: Anti-inflammatory activity in mouse BV-2 cells assessed as inhibition of LPS-induced NO production preincubated with compound for 1 hrs followed by LPS stimulation and measured after 24 hrs by Griess reagent based assay. It is filed as functional, cell-based.
The subject of assay [12] is RAW264.7. The assay is described as follows: Antiinflammatory activity in mouse RAW264.7 cells assessed as decrease in LPS-induced IL-6 secretion after 24 hrs by ELISA method. The following applies: RAW264.7, 24 h. It is filed as functional, cell-based.
For the next assay, the system named is HepG2. The assay is described as follows: Anti-inflammatory activity against TNFalpha-induced human HepG2 cells assessed as inhibition of NF-kappaB activity pre-indubated for 1 hr followed by TNFalpha treatment measured for 5 hrs by luciferase based assay. It is filed as functional, cell-based.
The subject of assay [13] is RAW264.7. Briefly: Antiinflammatory activity against mouse RAW264.7 cells assessed as reduction of LPS-induced NO production. It is filed as functional, cell-based.
The test system of assay [14] is RAW264.7. Briefly: Antiinflammatory activity in mouse RAW264.7 cells assessed as decrease in LPS-stimulated IL-6 mRNA level incubated for 3 hrs by RT-qPCR analysis. The class given is functional, cell-based. The following applies: RAW264.7, 3 h.
The subject of assay [15] is BV-2. The assay is described as follows: Anti-inflammatory activity against mouse BV-2 cells assessed as inhibition of LPS-induced IL-1beta secretion at 25 uM pretreated for 2 hrs followed stimulated with LPS for 22 hrs by ELISA analysis relative to control. The class given is functional. Further details: scale not given: the % may be the effect or the level left. The following applies: time 24 hrs.

Assay [16] deals with RAW264.7. The assay is described as follows: Antiinflammatory activity in mouse RAW264.7 cells assessed as reduction in LPS-induced COX-2 expression after 24 hrs by Western blot analysis. It is filed as functional, cell-based. The following applies: RAW264.7, 24 h.
In assay [17] the test system is RAW264.7. The assay is described as follows: Antiinflammatory activity in mouse RAW264.7 cells assessed as reduction in LPS-induced iNOS expression after 24 hrs by Western blot analysis. It is filed as functional, cell-based. The following applies: RAW264.7, 24 h.
Assay [18] has as its system RAW264.7. The assay is described as follows: Anti-inflammatory activity in mouse RAW264.7 cells assessed as inhibition of LPS-induced TNFalpha production preincubated for 1 hr followed by LPS addition and measured after 24 hrs by ELISA. The class given is functional, cell-based.
Assay [19] relates to RAW264.7. Briefly: Anti-inflammatory activity in mouse RAW264.7 cells assessed as inhibition of LPS-induced IL-1beta production preincubated for 1 hr followed by LPS addition and measured after 24 hrs by ELISA. It is filed as functional, cell-based.
Assay [20] has as its system RAW264.7. Briefly: Anti-inflammatory activity in mouse RAW264.7 cells assessed as inhibition of LPS-induced IL-6 production preincubated for 1 hr followed by LPS addition and measured after 24 hrs by ELISA. It is filed as functional, cell-based.
In assay [21] the test system is BV-2. The assay is described as follows: Antiinflammatory activity in mouse BV-2 cells assessed as reduction in LPS-induced NO production pre-treated with compound for 1 hr followed by stimulated with LPS for 18 hrs by 2,3-diaminonaphthalene reagent based fluorescence analysis. It is filed as functional, cell-based.
The subject of assay [22] is RAW264.7. Briefly: Antiinflammatory activity in mouse RAW264.7 cells assessed as reduction in iNOS protein expression at 5 to 40 uM relative to control. Further details: scale not given: the % may be the effect or the level left. It is filed as functional. The following applies: dose 5-40 µM.
The next assay deals with Peritoneal macrophage. Briefly: Antiinflammatory activity against LPS-stimulated mouse peritoneal macrophage assessed as TNF-alpha level. It is filed as functional, cell-based.

≈ marks a conversion by molar mass, not a printed value. A value given as a limit tells only on which side of the number the result lay.

As to `COc1cc(O)c(CC=C(C)C)c2oc(=O)cc(-c3ccccc3)c12`, the IC50 with RAW264.7 [1] came to 29.2 µM; in the assay on J774.A1 [2], 38.2 µM; in the assay on RAW264.7 [5], 21.3 µM; in the assay with J774.A1 [6], 20.4 µM. In addition, the Activity was 41.8% in the assay with Rattus norvegicus [3] and 55% in the assay with Rattus norvegicus [4].
Regarding `O=C(/C=C/c1ccc(O)cc1)c1ccc(O)cc1O` [ISOLIQUIRITIGENIN], the IC50 in the assay on BV-2 [7] stood at 6.78 µM; with BV-2 [8], 5.22 µM.
Take `O=c1c(O)c(-c2ccc(O)c(O)c2)oc2cc(O)cc(O)c12` [QUERCETIN]: the Activity was determined as 28.6% in assay [9] and 83.3% with RAW264.7 [10]. Also, the IC50 with BV-2 [11] was determined as 12.6 µM; with RAW264.7 [12], 35.5 µM; in the assay with HepG2, 15.1 µM; in the assay with RAW264.7 [13], 14.2 µM; with RAW264.7 [14], 22.5 µM.
Turning to `COc1ccc(-c2cc(=O)c3c(O)cc(OC)c(O)c3o2)cc1`, the Activity in the assay on BV-2 [15] is reported as more than 50%.
`O=C1c2c(O)cc(O)cc2O[C@H](c2cc(O)c(O)c(O)c2)[C@H]1O` [AMPELOPSIN]: the IC50 in the assay with RAW264.7 [16] and in the assay on RAW264.7 [17] was 6.25 µg/mL (≈ 19.5 µM) each time.
For the molecule `O=c1c(O)c(-c2cc(O)c(O)c(O)c2)oc2cc(O)cc(O)c12` [MYRICETIN], the IC50 in the assay on RAW264.7 [18] came out at 23.9 µM; in the assay with RAW264.7 [19], 19.2 µM; in the assay on RAW264.7 [20], 19.7 µM.
Regarding `O=C1/C(=C/c2ccc(O)c(O)c2)Oc2cc(O)ccc21` [SULFURETIN], the IC50 in the assay with BV-2 [21] worked out at 31.4 µM.
Take `CC(C)=CCc1c([C@H]2Oc3cc(O)cc(O)c3C(=O)[C@@H]2O)cc2c(c1O)OC(C)(C)C=C2`: the Activity in the assay with RAW264.7 [22] is recorded as 42.8%.
As to `O=c1c(-c2ccc(O)cc2)coc2cc(O)cc(O)c12` [GENISTEIN], in the assay with Peritoneal macrophage, the IC50 is 16.9 µM.
